Data on 59 compounds can be found in article PMC12040169 (PLOS Biology, 2025).

The series can be described thus: in vitro. The conditions noted are these: human, hela cells, % viability.

Regarding `CCOCC1CCCN1C(=O)Nc1ccc2sc(C(=O)N(C)C)cc2c1` (centres unmarked) [CBK306601], the viability at 28.5 h, 10 µM is 98.3%.
In the case of `Cc1cc(C(C)(C)C)oc1C(=O)N1CCn2c(nnc2C2CC2)C1` [CBK283771] it was 93.9%; in that of `COCCN(C(=O)c1nc2cccnc2s1)C1CCS(=O)(=O)C1` (centres unmarked) [CBK304091], 97%; in that of `CC(CNC(=O)C(C)Oc1ccccc1)CN(C)C` (centres unmarked) [CBK268658], 94%.
For the compound `COc1ccc(OC)c(NC(=O)C(C)Oc2ccccc2OC)c1` (centres unmarked) [CBK269766], the viability at 28.5 h, 10 µM was determined as 85.3%.
In the case of `C1CN=C(SCCCCSC2=NCCCN2)NC1` [CBK278223B] it was 107%; in that of `CCCNC(=O)Cn1nc(C)n2c(cc3sc(C)cc32)c1=O` [CBK284068], 86.1%.
Take `CN1N=C(c2ccc(N3CCOCC3)c(F)c2)CC1c1cnn(C)c1` (centres unmarked) [CBK305726]: the viability at 28.5 h, 10 µM came out at 87.6%.
In the case of `CC1CCc2sc3ncnc(N4CCN(CCOC(c5ccccc5)c5ccccc5)CC4)c3c2C1` (centres unmarked) [CBK264884] it was 86.6%.
`NC(=O)CN1CC(O)CC1=O` (centres unmarked) [CBK011649]: the viability at 28.5 h, 10 µM was 86.1%.
On to `FC(F)c1cc(-c2ccccc2)n2ncnc2n1` [CBK025714], for which the viability at 28.5 h, 10 µM is 87.3%.
As to `CCOC(=O)c1cnn(-c2ccccc2)c1NS(=O)(=O)c1cccc(Cl)c1C` [CBK024055], the viability at 28.5 h, 10 µM is 84.6%.
In the case of `CN1CCC(Oc2nc3ccccc3nc2C(F)(F)F)CC1` [CBK113299] it was 90.1%; in that of `CC(O)CNc1nccnc1-c1cccc(O)c1` (centres unmarked) [CBK037055], 97.6%; in that of `CCCn1c(C)cc2cc(NC(=O)Cn3ccnc3)ccc21` [CBK281549], 92.4%.
In the case of `CCOc1ccccc1OCC(=O)NN` [CBK261782] it was 93.2%.
In the case of `CCc1nn(C)c2[nH]nc(NC(=O)Cc3csc(C)n3)c12` [CBK305538] it was 91.7%.
Consider `CN1CCN(c2cncc(-c3ccccc3CO)n2)CC1` [CBK065302], for which the viability at 28.5 h, 10 µM worked out at 91.8%.
In the case of `CCCCOc1ccc(NC(=O)Nc2cc3cccnc3c(Br)n2)cc1` [CBK063291] it was 78.1%.
In the case of `CCCCn1nccc1NC(=O)NC(C)c1n[nH]c(C)n1` (centres unmarked) [CBK307486] it was 99.4%.
In the case of `CCN1CCCN(c2cc(OCc3ccc(Cl)c(Cl)c3)ncn2)CC1` [CBK083786] it was 92.3%; in that of `CC(C)(C)OC(=O)N1CCC(COc2ccc(-c3ccc(S(C)(=O)=O)cc3)nc2)CC1` [CBK167839], 108%; in that of `Cc1cc(C)c2c(C)nn(-c3ccc(C(=O)O)cc3)c2n1` [CBK267480], 89.6%.
Take `CCN(CC)C(=O)C1CCCN(C(=O)NCc2ccc(C#N)cc2)C1` (centres unmarked) [CBK156132]: the viability at 28.5 h, 10 µM was 102%.
In the case of `O=C(Cc1ccc(F)cc1)N1CCCC(c2cc3ncccc3[nH]2)C1` (centres unmarked) [CBK283414] it was 109%.
As to `Nc1nnc(Sc2nccnc2N2CCCC2)s1` [CBK093804], the viability at 28.5 h, 10 µM stood at 103%.
Consider `CCOC(=O)CN1CCN(S(=O)(=O)c2ccc3ccccc3c2)CC1` [CBK043738], for which the viability at 28.5 h, 10 µM came out at 93.4%.
In the case of `COc1ccc(C(C)C)cc1-c1cn2ccnc2c(Nc2ccc(N3CCOCC3)cc2)n1` [CBK037338] it was 103%.
In the case of `Cn1cccc1C(=O)Nc1cc2ccccc2c(N2CCNCC2)n1` [CBK036347T] it was 95.5%; in that of `CC(Cn1cncn1)C(=O)N1CCCCC1CCc1ccccc1` (centres unmarked) [CBK282265], 109%; in that of `CCCn1ncc(CN2CCC3(CC2)CC(C(=O)O)N(C(C)=O)C3)c1C` (centres unmarked) [CBK306612], 86.7%.
In the case of `CN1CCN(CCC(=O)Nc2ccc(Cl)c(C(F)(F)F)c2)CC1` [CBK265995] it was 89.9%.
Consider `C=CCNC(=O)C1(Cc2ccccc2-c2ccncc2)CCOCC1` [CBK284784], for which the viability at 28.5 h, 10 µM came out at 102%.
In the case of `CCN1CCN(C(=O)c2ccc3ccccc3n2)CC1` [CBK200249] it was 133%; in that of `COCCOCN1C(=O)CC2(C1=O)C(=O)N(Cc1ccc(OC(F)(F)F)cc1)c1ccccc12` (centres unmarked) [CBK075942], 94.2%.
In the case of `CC(C)C(NC(=O)c1ccc(CS(C)(=O)=O)cc1)c1ccc(C(C)(C)C)cc1` (centres unmarked) [CBK296705] it was 102%.
With `O=C(Nc1cccc(-c2nnn[nH]2)c1)c1ccc(Cl)c(Cl)c1` [CBK144713], the viability at 28.5 h, 10 µM is 89.3%.
In the case of `COc1ccc(-c2cnc(N)c(NCC(C)C)n2)c(OC)c1OC` [CBK063855] it was 95.4%; in that of `CCn1nc(C)c(-c2cncn2CCn2nc(C)c(C)c2C)c1C` [CBK281782], 98.8%.
`Nc1nnc(SCc2ccc(Br)cc2)s1` [CBK026356]: the viability at 28.5 h, 10 µM was 109%.
In the case of `c1ccc(COc2ccc(CN3CCN(c4ccccn4)CC3)cc2)cc1` [CBK261865] it was 89.3%.
In the case of `Clc1ccc(OCc2nc3ccccc3n2CCOc2ccccc2)c(Cl)c1` [CBK264728] it was 94.8%; in that of `Cc1ccccc1NC(=O)c1ccc(Br)o1` [CBK107152], 88.2%; in that of `CCOc1ccccc1Nc1nc(N)nc(CN2CCCCC2C)n1` (centres unmarked) [CBK266548], 105%.
Turning to `Cc1nc(NS(=O)(=O)Cc2ccccc2[N+](=O)[O-])sc1C(=O)O` [CBK045564], the viability at 28.5 h, 10 µM stood at 89.5%.
Regarding `O=C(Oc1ccc(-n2ccnc2)cc1)c1ccc(-c2ccccc2)cc1` [CBK095145], the viability at 28.5 h, 10 µM came out at 93.3%.
Consider `CC(=O)NC(c1ccccn1)C1CCCN(C(=O)C(C)(C)C)C1` (centres unmarked) [CBK285101], for which the viability at 28.5 h, 10 µM was 91.6%.
In the case of `Cc1[nH]nc(Nc2ccc(C(=O)O)cc2)c1[N+](=O)[O-]` [CBK262726] it was 80%.
In the case of `O=S(=O)(c1ccc(-n2cnc(Cl)c2Cl)cc1)N1CCCN(Cc2ccc3cccc(O)c3n2)CC1` [CBK063088] it was 92%; in that of `CCN(CC)CCNC(=O)c1ccc(C(=O)O)c(C)n1` [CBK304248], 85.9%; in that of `CC(=O)Nc1ccc(C(=O)N(Cc2ccccn2)CC2CCCO2)cn1` (centres unmarked) [CBK306784], 83.7%.
In the case of `O=C(Nc1ccc(N2CCNCC2)c2ccccc12)c1cccnc1` [CBK036336T] it was 92.9%.
Regarding `CS(=O)(=O)N1CCC(C(=O)NC(c2ccccc2)c2ccccc2)CC1` [CBK269801], the viability at 28.5 h, 10 µM is 77.8%.
In the case of `COc1cc(-c2cncc(NCc3cccc(Cl)c3)n2)cc(OC)c1OC` [CBK065284] it was 115%; in that of `Cc1noc(C)c1C(=O)N1CCC2(CC1)CC(=O)c1cc(Br)ccc1O2` [CBK156508], 90%; in that of `COc1cc(CNC(C)c2ccccc2)ccc1OCC(N)=O` (centres unmarked) [CBK269982C], 92.8%.
In the case of `O=S(=O)(Nc1cccc(Cl)c1Cl)c1cccc2nsnc12` [CBK067296] it was 86.3%; in that of `CCOC(=O)c1[nH]c2ccccc2c1NC(=O)Cc1c(Cl)cccc1Cl` [CBK160132], 95.6%.
As to `O=C(Cc1cccc2ccccc12)NC(NC(=S)Nc1ccccc1Br)C(Cl)(Cl)Cl` (centres unmarked) [CBK261094], the viability at 28.5 h, 10 µM was 106%.
